Here are results for one compound from US20260183305A1, “METHYLENE BLUE FOR USE IN THERAPY OF HEPATITIS B AND/OR HEPATITIS D INFECTION” (priority 2022, published 2026).

The subject of one data set is HepNB2.7 cells. Put plainly: MTT cell viability assay, cytotoxicity of MB on HepNB2.7. The settings on record: HepNB2.7, MTT. In kind it is cell-based. For orientation: Formazan colour is commonly taken as a measure of viable cells.
For data set [1] the following is noted: 5 mg/ml solution for injection; cited from earlier work.
The conditions of data set [2]: after oral administration; cited from earlier work.
The conditions of data set [3]: transplacental exposure, mouse; cited from earlier work.
For data set [4] the following is noted: Brazilian children, long periods of time; cited from earlier work.
Data set [5] has as its system HDV. Briefly: MB HDV inhibition assay (HDV RNA by RT-qPCR) on HepNB2.7 cells. Type of data set: cell-based, Hepatitis D Virus. On the procedure: (§1) HepG2-NTCP or HepNB2.7 cells were infected with different titers of HDV (10, 50 MOI) and treated with 2.5 or 1.25 μg/ml of MB for 5 hours.
(§2) HepG2-NTCP and HepNB2.7 cells (plated at 10×10^3 cells/well) were infected with 10 or 50 MOI of HDV using PEG (polyethylene glycol) 4% overnight as previously described (Alfaiate D, Lucifora J et al.; cf. above). MB (2.5 or 1.25 μg/ml) was added 16 hrs post HDV infection for 5 h and cells were incubated at room temperature in the dark. Three and six days post infection, RNA was extracted and HDV RNA level was monitored by RT-qPCR in order to determine HDV replication as described below. For HepNB2.7, the level of HBsAg in the supernatant were measured as described below.
(§3) Total intracellular RNA was extracted using the Nucleospin RNA Kit (Macherey-Nagel AG). cDNA was synthesized from 100 ng total RNA using Superscript II and random hexamer primers (Roche Diagnosis). Quantification of HDV was performed by qRT-PCR as described (Alfaiate D, Lucifora J et al), using the primers described by Scholtes & colleagues (Scholtes C, Icard V, Amiri M et al; “Standardized one-step real-time reverse transcription-PCR assay for universal detection and quantification of hepatitis delta virus from clinical samples in the presence of a heterologous internal-control RNA.” J Clin Microbiol 2012;50:2126-2128.) and EEF1A1 as housekeeping gene.
(§4) HepG2-NTCP or HepNB2.7 cells were infected with different titers of HDV (10, 50, 100 MOI) and treated with 2.5 or 1.25 μg/ml of MB for 5 hours. Cells were analyzed at day 3 or day 6 post-infection and HDV replication was assessed by RT-PCR. For HepNB2.7, the level of HBsAg in the supernatant were measured at both time points.
The inhibitory effect of MB on HDV replication on HepNB2.7 cells was investigated. In a first experiment cells infected with either 10 or 50 MOI were treated with MB (2.5 or 1.25 μg/ml) and HDV replication was assessed at 3 days, or 6 days, post infection.
For orientation: Quantitative PCR measures a nucleic acid by following its amplification.

A further data set has as its system Influenza N1H1 virus. The following applies: in vitro, hermetically closed box; cited from earlier work.
The next data set relates to SARS-COV-2. The settings on record: in vitro, hermetically closed box; cited from earlier work.
The subject of data set [6] is HBV surface antigen (HBsAg). Put plainly: HBsAg measurement by ELISA in supernatant of HDV infected HepNB2.7 cells. Type of data set: cell-based, Hepatitis B Virus. As for the experimental part: as §2
For HepNB2.7, the level of HBsAg in the supernatant were measured at both time points by ELISA (Enzyme-Linked Immosorbent Assay, ABBOTT PRISM® HBsAg) according to the protocol of the manufacturer.
as §4
In a second experiment the secretion of the HBV surface antigen (HBsAg) was measured in the supernatant of cells infected with 10, 50 or 100 MOI and treated with MB (2.5 or 1.25 μg/ml).
(In general: ELISA stands for enzyme-linked immunosorbent assay.)

Data set [7] has as its system HDV. Briefly: MB HDV inhibition assay (HDV RNA by RT-qPCR) on HepG2-NTCP cells. Type of data set: cell-based, Hepatitis D Virus. The settings on record: MB 2.5 or 1.25 μg/mL; for HDV RNA concentration: HepG2-NTCP. As for the experimental part: as §1, §2, §3, §4
The inhibitory effect of MB on HDV replication on HepG2-NTCP cells was investigated. Cells infected with either 10 or 50 MOI of virus were treated with MB (2.5 or 1.25 μg/ml) and HDV replication was assessed at 3 days (A) or 6 days (B) post infection.

“Also recorded” adds a separate entry of the source.

By bioavailability is commonly meant the share of a dose that reaches the circulation, judged against a reference dose that is usually intravenous. Regarding `CN(C)c1ccc2nc3ccc(N(C)C)cc3[s+]c2c1.[Cl-]` [MB, [7-(dimethylamino)phenothiazin-3-ylidene]-dimethylazanium, chloride], the “long-term cytotoxic effect (percentage of viability)” value in the data set on HepNB2.7 cells (3 days after incubation with different concentrations of MB) is “significant toxicity”. In addition, the “cytotoxic effect of MB in the presence of light as compared to dark” value in the data set with HepNB2.7 cells (dark vs photoactivated under visible light, 3 days after incubation) is “not significantly enhanced”. The “compatibility with 0.9% saline solution” value in data set [1] is “not compatible”. The “compatibility with 5% glucose or 5% dextrose solution” value in [1] is recorded as “compatible”. For the same compound, the bioavailability in data set [2] is 72%. Further, the elimination half-life in data set [2] was 18 h. Also, in data set [3], the teratogenicity result was “teratogenic”. The “dose tolerated very well” value in data set [4] is listed as 20-50 mg/kg per day. Also, in the data set with HDV [5] (HepNB2.7, 10 MOI, day 3 and 6), the HDV replication signal result is “weak signal”. Besides, the “effect of MB on viral reproduction (HDV replication)” value with HDV [5] (HepNB2.7, 50 MOI, day 6 post infection, MB 2.5 or 1.25 μg/ml) was “dose related effect”. In addition, the “viral markers under long-term treatment (extrapolated)” value in the data set on HDV [5] (long-term treatment (weeks instead of days), cell lines, no data shown) was “complete disappearance of viral markers”. Besides, the “antiviral efficacy in the total dark” value with Influenza N1H1 virus and with SARS-COV-2 was “strong antiviral efficacy” throughout. The “secretion of the HBV surface antigen (HBsAg) in the supernatant” value in data set [6] (HepNB2.7 infected with 10, 50 or 100 MOI HDV, MB 2.5 or 1.25 μg/ml, all conditions tested) is “diminished secretion; also recorded: clear-cut dose/response relationship”. For the same compound, the “antiviral effect of MB over time” value in data set [6] (results on day 3 and 6) was “accumulates over time”. Moreover, the “HDV RNA concentration” value with HDV [7] (10 MOI) was “too low to distinguish the antiviral impact of MB”; with HDV [7] (50 MOI, 3 and 6 days post infection), “clear dose response relationship”. Besides, in the data set with HDV [7] (physiological drug concentrations), the “antiviral effect of MB against HDV infected HepG2-NTCP cells” value is on record as “significant antiviral effect”.
